# Source: US10159640B2, “Prebiotic oral care compositions containing amino acids” (COLGATE-PALMOLIVE COMPANY, priority 2013, dated 2018)
# Key:
# Assay in all cases: Metabolic activity, Biolog phenotype microarray
# Assay type in all cases: cell-based
# Conditions in all cases: control without dipeptide = 1
# Streptococcus sanguinis = test system: Streptococcus sanguinis
# Summary of the method: (§1)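 Each species, grown 48 h anaerobically on blood agar, was suspended in IF-0 fluid with tetrazolium Redox Dye D, succinate and ferric citrate, then dispensed onto dipeptide-preloaded plates. Incubated anaerobically at 37° C; OD 492 nm read at 24 and 48 h versus no-dipeptide controls; mean of three biological replicates.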
# Streptococcus mutans = test system: Streptococcus mutans
# Summary of the method: as §1
# Actinomyces naeslundii = test system: Actinomyces naeslundii
# Summary of the method: as §1
# Streptococcus gordonii = test system: Streptococcus gordonii
# Summary of the method: as §1
# Prevotella intermedia = test system: Prevotella intermedia
# Summary of the method: as §1
# Fusobacterium nucleatum = test system: Fusobacterium nucleatum
# Summary of the method: as §1
# Streptococcus mitis = test system: Streptococcus mitis
# Summary of the method: as §1
# Veillonella parvula = test system: Veillonella parvula
# Summary of the method: as §1
# Streptococcus salivarius = test system: Streptococcus salivarius
# Summary of the method: as §1
# Streptococcus sobrinus = test system: Streptococcus sobrinus
# Summary of the method: as §1
# [1] = test system: Aggregatibacter actinomycetemcomitans
# Summary of the method: as §1
# Tannerella forsythia = test system: Tannerella forsythia
# Summary of the method: as §1
# Porphyromonas gingivalis = test system: Porphyromonas gingivalis
# Summary of the method: as §1
# Capnocytophaga sputigena = test system: Capnocytophaga sputigena
# Summary of the method: as §1
# Actinomyces viscosus = test system: Actinomyces viscosus
# Summary of the method: as §1
Substance,metabolic activity: OD 492 nm divided by OD of control (Streptococcus sanguinis; 24 hrs),metabolic activity: OD 492 nm divided by OD of control (Streptococcus sanguinis; 48 hrs),metabolic activity: OD 492 nm divided by OD of control (Streptococcus mutans; 24 hrs),metabolic activity: OD 492 nm divided by OD of control (Streptococcus mutans; 48 hrs),metabolic activity: OD 492 nm divided by OD of control (Actinomyces naeslundii; 24 hrs),metabolic activity: OD 492 nm divided by OD of control (Actinomyces naeslundii; 48 hrs),metabolic activity: OD 492 nm divided by OD of control (Streptococcus gordonii; 24 hrs),metabolic activity: OD 492 nm divided by OD of control (Streptococcus gordonii; 48 hrs),metabolic activity: OD 492 nm divided by OD of control (Prevotella intermedia; 24 hrs),metabolic activity: OD 492 nm divided by OD of control (Prevotella intermedia; 48 hrs),metabolic activity: OD 492 nm divided by OD of control (Fusobacterium nucleatum; 24 hrs),metabolic activity: OD 492 nm divided by OD of control (Fusobacterium nucleatum; 48 hrs),metabolic activity: OD 492 nm divided by OD of control (Streptococcus mitis; 24 hrs),metabolic activity: OD 492 nm divided by OD of control (Streptococcus mitis; 48 hrs),metabolic activity: OD 492 nm divided by OD of control (Veillonella parvula; 24 hrs),metabolic activity: OD 492 nm divided by OD of control (Veillonella parvula; 48 hrs),metabolic activity: OD 492 nm divided by OD of control (Streptococcus salivarius; 24 hrs),metabolic activity: OD 492 nm divided by OD of control (Streptococcus salivarius; 48 hrs),metabolic activity: OD 492 nm divided by OD of control (Streptococcus sobrinus; 24 hrs),metabolic activity: OD 492 nm divided by OD of control (Streptococcus sobrinus; 48 hrs),further results
Met-Pro,0.8599,0.8295,0.9563,0.9242,1.0381,1.0427,1.0870,1.0447,0.9704,0.9393,0.8752,0.8113,1.0020,0.9214,0.7714,0.6345,0.9990,0.9500,1.0338,1.0538,metabolic activity: OD 492 nm divided by OD of control ([1]; 24 hrs): 0.9162; metabolic activity: OD 492 nm divided by OD of control ([1]; 48 hrs): 0.8616; metabolic activity: OD 492 nm divided by OD of control (Tannerella forsythia; 24 hrs): 0.9040; metabolic activity: OD 492 nm divided by OD of control (Tannerella forsythia; 48 hrs): 0.9403; metabolic activity: OD 492 nm divided by OD of control (Porphyromonas gingivalis; 24 hrs): 1.0029; metabolic activity: OD 492 nm divided by OD of control (Porphyromonas gingivalis; 48 hrs): 1.0774; metabolic activity: OD 492 nm divided by OD of control (Capnocytophaga sputigena; 24 hrs): 2.5077; metabolic activity: OD 492 nm divided by OD of control (Capnocytophaga sputigena; 48 hrs): 1.8376; metabolic activity: OD 492 nm divided by OD of control (Actinomyces viscosus; 24 hrs): 1.5865; metabolic activity: OD 492 nm divided by OD of control (Actinomyces viscosus; 48 hrs): 2.0588
Phe-Glu,1.0204,1.0208,1.0352,0.9816,0.9642,0.9466,0.8472,0.9890,1.0519,0.9562,0.9451,0.9112,1.0644,1.1176,0.8043,0.7552,1.0411,0.9959,1.0354,1.0539,metabolic activity: OD 492 nm divided by OD of control ([1]; 24 hrs): 0.9204; metabolic activity: OD 492 nm divided by OD of control ([1]; 48 hrs): 0.9345; metabolic activity: OD 492 nm divided by OD of control (Tannerella forsythia; 24 hrs): 1.0452; metabolic activity: OD 492 nm divided by OD of control (Tannerella forsythia; 48 hrs): 1.0015; metabolic activity: OD 492 nm divided by OD of control (Porphyromonas gingivalis; 24 hrs): 0.9806; metabolic activity: OD 492 nm divided by OD of control (Porphyromonas gingivalis; 48 hrs): 0.9029; metabolic activity: OD 492 nm divided by OD of control (Capnocytophaga sputigena; 24 hrs): 2.1428; metabolic activity: OD 492 nm divided by OD of control (Capnocytophaga sputigena; 48 hrs): 1.7139; metabolic activity: OD 492 nm divided by OD of control (Actinomyces viscosus; 24 hrs): 1.3824; metabolic activity: OD 492 nm divided by OD of control (Actinomyces viscosus; 48 hrs): 2.1224
